Measured values taken from US8785600B2, “Anti-GCC antibody molecules and related compositions and methods” (Millennium Pharmaceuticals, Inc., priority 2009, dated 2014).
Square brackets hold non-standard residues; d marks the D form. Peptide text beside a SMILES is read from it. * marks the point of attachment. Dolaproine = CO[C@@H]([C@@H]1CCCN1)[C@@H](C)C(=O)O; Hexanoyl(6-maleimido) = O=C1C=CC(=O)N1CCCCCC(=O)*; Dil = CC[C@H](C)[C@H](NC)[C@@H](CC(=O)O)OC; X1 = C[C@@H](N*)[C@@H](O)c1ccccc1; NMeV = CN[C@H](C(=O)O)C(C)C

How the values were obtained:
293-GCC#2 tumors [1] = assay: PD study: phosphohistone H3 positive tumor cells after single iv dose; assay type: in vivo, mice; settings: 75 or 150 ug/kg toxin
Method: An alternative tumor model used 293-GCC#2 cells. A PD study for 5F9 ADCs in 293-GCC#2 tumor bearing mice was performed. Mice were dosed with single doses of 5F9vcMMAF at 75 ug/kg or 150 ug/kg and serum was taken at timepoints from 1 hr through 4 days for PD analysis of phosphohistone H3 to test antimitotic effects of the toxin on tumor cells. Phospho-histone H3 was detected by antibody (Upstate Biotechnology, now Millipore, Billerica, Mass.) staining of paraffin embedded sections of tumors.
Similar studies measured the phosphohistone levels in 293-GCC#2 tumor-bearing mice treated with 5F9vcMMAF, 5F9-SPDB-DM4 and 5F9-SMCC-DM1. Mice were dosed with single doses at 150 ug/kg and serum was taken at timepoints from 1 hr through 21 days for PK analysis of both total antibody and toxin-conjugated antibody. The percentage of phosphohistone H3 positive cells in 293-GCC#2 tumors increased in response to all three ADCS: 5F9vcMMAF, 5F9-SMCC-DM1 and 5F9-SPDB-DM4. Maximal phosphohistone H3 levels were 3- to 5-fold increased over baseline, with peaks at 24 hours post-injection.

293-GCC#2 tumors [2] = assay: Efficacy study with 5F9vcMMAF and 5F9-DMx in 293-GCC#2 s.c. tumors; assay type: in vivo; settings: 293-GCC#2 bearing SCID mice, 75 and 150 ug/kg toxin, q14d schedule
Method: 5F9-SPDB-DM4, 5F9-SMCC-DM1 and 5F9vcMMAF were tested for efficacy in the 293-GCC#2 tumor model at two doses (75 μg/kg and 150 μg/kg toxin), on a q14d×5 schedule. Specifically, this study included vehicle-treated control, Sc209-DM1 (150 μg/kg DM1 eq), Sc209-DM4 (150 μg/kg DM4 eq), Sc209-vcMMAF (150 μg/kg MMAF eq), 5F9-DM1 (150 μg/kg DM1 eq), 5F9-DM1 (75 μg/kg DM1 eq), 5F9-DM4 (150 μg/kg DM4 eg), 5F9-DM4 (75 μg/kg DM4 eq), 5F9-vcMMAF (150 μg/kg MMAF eq), and 5F9-vcMMAF (75 μg/kg MMAF eq). Taconic females mice bearing 293-GCC#2 cells (10 mice per group) were used.
FIG. 1 depicts tumor growth in 293-GCC#2 bearing SCID mice treated with 5F9vc-MMAF, -DM1, and -DM4 on a q14d schedule. […] Therefore at these doses and schedules, 5F9-SPDB-DM4 had the greatest efficacious differential from its control conjugate.
5F9-SPDB-DM4 and 5F9-SMCC-DM1 were tested for efficacy in the 293-GCC#2 tumor model at two doses (75 ug/kg and 150 ug/kg toxin) on a q7d×5 schedule. Specifically, this study included vehicle-treated control, 5F9 alone (15 mg/kg), DM1 (300 μg/kg), DM4 (300 μg/kg), Sc209-DM1 (150 μg/kg DM1 eq), Sc209-DM4 (150 μg/kg DM4 eq), Sc209-vcMMAF (150 μg/kg MMAF eq), 5F9-DM1 (150 μg/kg DM1 eq), 5F9-DM1 (75 μg/kg DM1 eq), 5F9-DM4 (150 μg/kg DM4 eq), and 5F9-DM4 (75 μg/kg DM4 eq). Taconic females mice bearing 293-GCC#2 cells (10 mice per group) were used.

293 GCC#2 tumors = assay: Efficacy study with auristatin conjugates in 293 GCC#2 tumors; assay type: in vivo, SCID mice; design: TGI (tumor growth inhibition) / TGD (tumor growth delay): unit not given here
Method: 293 GCC#2 tumor-bearing SCID mice were treated with 5F9 conjugates with vc MMAE, vcMMAF or mcMMAF at three doses in comparison with 209 conjugates of these toxins or with free toxins or vehicle control. Doses were administered iv on a q7d×4 schedule. Tumors were harvested at days 3, 7, 10, 13 and 17. […] Table 18 provides a summary of the results (TGI=tumor growth inhibition, T/C=treatment/control, TGD=tumor growth delay, CR/PR=complete response/partial response; p value=measure to judge statistical significance, NS=not significant).
All three of these ADCs were efficacious in the 293 GCC#2 model on a q7d schedule.

293 GCC#2 cells = assay type: cell-based, human; settings: 293 cell model (293 GCC#2 vs control cells / 209 ADCs)
HT29 GCC#5 cells = assay type: cell-based, human; settings: HT29 cell model
HT29-GCC#5 tumors = assay: Pilot efficacy studies in HT29-GCC#5 s.c. tumors; assay type: in vivo, mice; settings: 150 μg/kg on a q3d×5 schedule
Method: Studies were performed to determine efficacious conjugates and dosage regimens in mice bearing HT29-GCC#5 tumors. Mice were dosed with single or multiple doses. These studies determined that there was toxicity at too frequent dosing at higher levels of toxin conjugate (e.g., 150 μg/kg 5F9vcMMAF on a q3d×5 schedule). Another study determined that q14d×5 schedule was too infrequent in this model to allow some toxin conjugates to show significant efficacy vs. controls.

[3] = tested on: PHTX-9c primary human colon tumor xenograft; assay: Antitumor activity in PHTX-9c primary human colon tumor xenograft (Study A and Study B); assay type: in vivo, CB-17 SCID mice
Method: Female CB-17 SCID mice (eight weeks old) were inoculated subcutaneously (SC) into the flank with PHTX-9c tumor fragments (2 mm×2 mm). Tumor growth was monitored twice per week using vernier calipers and the mean tumor volume was calculated using the formula (0.5×[length×width^2]). When the mean tumor volume reached approximately 150 mm^3 (Study A) or 160 mm^3 (Study B), animals were randomized into treatment groups (n=10/group for Study A and n=9/group for Study B).
Doses were administered on Days 1, 8, and 15 for the QW schedule and Days 1, 4, 8, 11, 15, and 18 for the BIW schedule. […] The equivalent dose of linker+MMAE is 4% of the 5F9-vcMMAE dose. These calculations are based on a mean 3.9 MMAE molecules per antibody and a free antibody molecular weight of 150 kD. Actual antibody molecular weight will vary slightly due to degree of glycosylation.
Tumor volume and body weight were measured twice weekly and were continued beyond the treatment period to measure regrowth kinetics, as evidenced by tumor growth delay (TGD). Tumor volume measurements were continued until tumor volume reached 10% of the body weight in a single mouse within a treatment group, at which time the group was terminated. The percentage of tumor growth inhibition (TGI) ([mean tumor volume of the control group−mean tumor volume of a treated group]/mean tumor volume of the control group; a T/C ratio) was determined on Day 20. The T/C ratios across a treatment group were compared to the T/C ratios of the control group using a two-tailed Welch's t-test.
The differences in the tumor growth trends over time between pairs of treatment groups were assessed using linear mixed effects regression models. These models account for the fact that each animal was measured at multiple time points. A separate model was fit for each comparison, and the areas under the curve (AUC) for each treatment group were calculated using the predicted values from the model. The percent decrease in AUC (dAUC) relative to the reference group was then calculated.

CT26 hGCC/luc #32 cells = assay: Pilot efficacy study with naked antibody in CT26 hGCC/luc #32 disseminated model; settings: 40 mg/kg

## 5F9-SMCC-DM1: 5F9 conjugated to DM1 using SMCC heterobifunctional crosslinker
293-GCC#2 tumors [1]
  Percentage of phosphohistone H3 positive cells in 293-GCC#2 tumors: increased
293-GCC#2 tumors [2]
  Tumor growth (efficacy): efficacious, however less so than 5F9-SPDB-DM4 at 150 ug/kg

## 5F9-vcMMAE: 5F9 mAb conjugated to MMAE through the vc (Val-Cit) linker; average drug loading about 3.6
293 GCC#2 tumors; 75 μg/kg iv q7d×4
  T/C (treatment/control): 0.45
  TGD (tumor growth delay): 4.4
  TGI (tumor growth inhibition): 54.5
293 GCC#2 tumors; 150 μg/kg iv q7d×4
  T/C (treatment/control): 0.17
  TGI (tumor growth inhibition): 83.5
293 GCC#2 tumors; 300 μg/kg iv q7d×4
  T/C (treatment/control): 0.03
  TGI (tumor growth inhibition): 96.9

## 5F9-vcMMAF: 5F9 anti-GCC antibody molecule conjugated with mc-vc-MMAF
293 GCC#2 cells
  Target enhanced cell kill: target enhanced cell kill
HT29 GCC#5 cells
  Target enhanced cell kill: target enhanced cell kill
HT29-GCC#5 tumors
  Toxicity: toxicity
293-GCC#2 tumors [1]
  Percentage of phosphohistone H3 positive cells in 293-GCC#2 tumors: increased
293-GCC#2 tumors [2]
  Tumor growth (efficacy): the most efficacious
293 GCC#2 tumors; 37.5 μg/kg iv q7d×4
  T/C (treatment/control): 0.35
  TGD (tumor growth delay): 7.1
  TGI (tumor growth inhibition): 65.2
293 GCC#2 tumors; 75 μg/kg iv q7d×4
  T/C (treatment/control): 0.12
  TGI (tumor growth inhibition): 88.5
293 GCC#2 tumors; 150 μg/kg iv q7d×4
  T/C (treatment/control): 0.03
  TGI (tumor growth inhibition): 97
293 GCC#2 tumors; 293 GCC#2 model, iv, q7d×4 schedule
  Tumor growth inhibition (efficacy): more potent than 5F9-vcMMAE

## CC[C@H](C)[C@@H]([C@@H](CC(=O)N1CCC[C@H]1[C@H](OC)[C@@H](C)C(=O)N[C@H](C)[C@@H](O)c1ccccc1)OC)N(C)C(=O)[C@@H](NC(=O)[C@@H](NC)C(C)C)C(C)C [Free MMAE] (H-[NMeV]V[Dil][Dolaproine]-X1)
293 GCC#2 tumors; 300 μg/kg iv q7d×4
  CR/PR (complete response/partial response): 0
  T/C (treatment/control): 0.64
  TGD (tumor growth delay): 2
  TGI (tumor growth inhibition): 35.6

## CC[C@H](C)[C@@H]([C@@H](CC(=O)N1CCC[C@H]1[C@H](OC)[C@@H](C)C(=O)N[C@@H](Cc1ccccc1)C(=O)O)OC)N(C)C(=O)[C@@H](NC(=O)[C@H](C(C)C)N(C)C(=O)CCCCCN1C(=O)C=CC1=O)C(C)C [Free mcMMAF] ({Hexanoyl(6-maleimido)}-[NMeV]V[Dil][Dolaproine]F-OH)
293 GCC#2 tumors; 150 μg/kg iv q7d×4
  CR/PR (complete response/partial response): 0
  T/C (treatment/control): 1.03
  TGD (tumor growth delay): −1.3
  TGI (tumor growth inhibition): −3.4

## CC[C@H](C)[C@@H]([C@@H](CC(=O)N1CCC[C@H]1[C@H](OC)[C@@H](C)C(=O)N[C@H](C)[C@@H](O)c1ccccc1)OC)N(C)C(=O)[C@@H](NC(=O)[C@@H](NC)C(C)C)C(C)C [MMAE, monomethyl auristatin E] (H-[NMeV]V[Dil][Dolaproine]-X1)
[3]; 0.075 mg/kg IV QW
  TGI: no tumor growth inhibition
[3]; 0.135 mg/kg IV QW
  TGI: no tumor growth inhibition
[3]; 0.15 mg/kg IV QW
  TGI: no tumor growth inhibition
[3]; Study A, 0.075 mg/kg IV QW × 3 doses, Day 20
  TGI: 5.0 (p > 0.05) %
[3]; Study A, 0.15 mg/kg IV QW × 3 doses, Day 20
  TGI: 11.1 (p > 0.05) %
[3]; Study B, 0.135 mg/kg IV QW × 3 doses, determined on Day 20
  TGI: 2.2 (p > 0.05) %

## sc209: human IgG1 monoclonal antibody raised against an unrelated target, with no reactivity to GCC; negative control [reference compound]
CT26 hGCC/luc #32 cells
  T/C compared to 0.9% NaCl group: 0.64
CT26 hGCC/luc #32 cells; end of study
  Lung weight, T test P vs. vehicle: 0.4
